{
  "source": "patent US20080175905A1",
  "about": "“ESTROGEN/SERM AND ESTROGEN/PROGESTIN BI-LAYER TABLETS” (Wyeth, priority 2006, published 2008)",
  "origin": "cited, not measured here",
  "key": {"uterine response": {"system": "uterine response", "details": "preclinical models of uterine stimulation"}, "[1]": {"system": "ovariectomized rat model of osteopenia"}, "[2]": {"system": "MCF-7 cell line (human breast cancer cell line)", "details": "MCF-7 human breast cancer cell line"}},
  "data": [
    {"smiles": "Cc1c(-c2ccc(O)cc2)n(Cc2ccc(OCCN3CCCCCC3)cc2)c2ccc(O)cc12", "note": "[bazedoxifene acetate, 1-[4-(2-azepan-1-yl-ethoxy)-benzyl]-2-(4-hydroxy-phenyl)-3-methyl-1H-indol-5-ol acetic acid]", "values": [
      {"measurement": "stimulation of uterine response", "setting": "uterine response", "value": "little or no stimulation of uterine response"},
      {"measurement": "preventing bone loss", "setting": "[1]", "value": "estrogen agonist-like effect"},
      {"measurement": "reducing cholesterol", "setting": "[1]", "value": "estrogen agonist-like effect"},
      {"measurement": "estrogen antagonist behaviour in MCF-7 cell line", "setting": "[2]", "value": "behaves as an estrogen antagonist"}
    ]}
  ]
}
